Measurements taken from US8673934B2, “Anti-infective agents and/or immunomodulators used for preventive therapy following an acute cerebrovascular accident” (priority 2002, dated 2014).

Experiments:
[1] = system: mouse model of cerebral ischemia (MCAO); stroke-induced immunodepression and bacterial infection; assay: Immunomodulating therapy in mouse model of cerebral ischemia (MCAO): lymphopenia, lymphocyte/monocyte function, infections, survival; type: in vivo
Description: According to the mouse model of cerebral ischemia, mice were operated according to the MCAO. In this operation, the A. cerebri media is occluded for about 60 minutes, leading to a cerebral infarction typical for this model. As a control, we use the so-called Sham-operation, in which the animals are also MCAO-operated, but in which the A. cerebri media is only occluded for about 1 minute. For the rest, the two paradigms are identical. Thus, the perioperative stress can be doubtlessly excluded as a systemic mistake for the following results.
This severe lymphopenia persists at least for 14 days and also affects the spleen and the thymus (FIG. 6:d-g), which constitute essential organs of immunological maturation. Besides the mere numeric decrease, there also occurs a functional impairment with a disturbance of the cytokine secretion capacity after stimulation (FIG. 6: h and j). Besides the disturbance of monocyte function, which manifests as a disturbance of TNF-α secretion for 2 days after LPS-stimulation, one can also detect a lymphocyte alteration after ConA-stimulation; this alteration persisting for 14 days after the stroke and mainly causing a Th1- to Th2-shift (alteration of the IFN-γ/IL4 ratio), which means a loss of pro-inflammatory potential. […] B- and NK-cells only slightly decrease in the blood after the OP-stress. In the spleen and in the thymus, no major stress-induced alterations are detected and the functional parameters of the monocytes and lymphocytes remain at the control level. […] In contrast to this, no infection is found in the control animals (Sham-operated).
Furthermore, the blockade of the SNS by propranolol (30 mg/kg body weight) also prevents the disturbance of function of the remaining monocytes (TNF-α secretion) and of the lymphocytes (IFN-γ/IL-4 ratio) (FIG. 7). The SNS blockade can also prevent the development of infections in the lung (pneumonia) and in the blood (sepsis) (FIG. 7). The dose of propranolol (indicated as mg/kg body weight), which is required for the prevention or drastic reduction of the bacterial infections, also prevents the disturbed INF-γ secretion of the lymphocytes (FIG. 8). To this aim, the administration of propranolol has to be accomplished at a very early stage (immediately up to 12 hours) after the stroke. An application 24 hours after the stroke event has no effect (FIG. 8). An early (before the stroke) chemical sympathicolysis by 6-hydroxydopamin (6-OHDA) as well prevents the stroke-induced, disturbed INF-γ function of the lymphocytes and blocks the severe bacterial infections (FIG. 8).

[2] = system: mouse model of cerebral ischemia (MCAO); stroke-induced spontaneous bacterial infection (more than 95% Escherichia coli)
Description: According to the mouse model of cerebral ischemia, a generally accepted model of ischemic stroke, mice were operated according to the MCAO. In this operation, the A. cerebri media is occluded for about 60 minutes, leading to a cerebral infarction typical for this model. As a control, we use the so-called Sham-operation, in which the animals are also MCAO-operated, but in which the A. cerebri media is only occluded for about 1 minute. For the rest, the two paradigms are identical.

[3] = early (before the stroke) chemical sympathicolysis, FIG. 8
[4] = after experimental stroke in mice, FIG. 7

For `NCCc1cc(O)c(O)cc1O` [6-hydroxydopamin (6-OHDA), 6-hydroxydopamin], the severe bacterial infections [1, 3] was “blocks” and the “stroke-induced, disturbed INF-γ function of the lymphocytes” value [1, 3] was “prevents”.

In the case of `COc1c(N2C[C@@H]3CCCN[C@@H]3C2)c(F)cc2c(=O)c(C(=O)O)cn(C3CC3)c12` [moxifloxacin, 1-cyclopropyl-6-fluoro-1,4-dihydro-8-methoxy-7-[(4aS,7aS)-octahydro-6H-pyrrolo[3,4-b]-pyridin-6-yl]-4-oxoquinoline-3-carboxylic acid], the neurological deficit ([2]; early administration within the first 24 h) is reported as “drastically reduced”, the “infections (pneumonia, sepsis)” value ([2]; very early (0-12 h) and somewhat later (12-24 h after acute stroke) treatment scheme) is reported as “prevented” and the fever/hyperthermia ([2]; very early (0-12 h) and somewhat later (12-24 h after acute stroke) treatment scheme, FIG. 3) is reported as “significantly reduced”. The “neurological deficit after stroke” value ([2]; very early (0-12 h) and somewhat later (12-24 h after acute stroke) treatment scheme, FIG. 5) was “significantly reduced”.

For `CC(C)NCC(O)COc1cccc2ccccc12` (centres unmarked) [propranolol], the “disturbance of function of the lymphocytes (IFN-γ/IL-4 ratio)” value ([1]; 30 mg/kg body weight, FIG. 7) was “prevents”, the “disturbance of function of the remaining monocytes (TNF-α secretion)” value ([1]; 30 mg/kg body weight, FIG. 7) was “prevents” and the survival after stroke ([1]; 30 mg/kg body weight, FIG. 10) was “drastically improve”. The infections ([1]; 30 mg/kg body weight, FIGS. 7 and 8) was “prevent”, the “development of infections in the lung (pneumonia) and in the blood (sepsis)” value ([1]; SNS blockade, FIG. 7) was “prevent” and the “decrease of T- and NK-cells” value [1, 4] was “prevent”. The “degree of B-cell lymphopenia” value [1, 4] was “significantly reduce”, the “effect on bacterial infections and INF-γ secretion of application 24 hours after the stroke event” value ([1]; application 24 hours after the stroke, FIG. 8) was “no effect” and the “disturbed INF-γ secretion of the lymphocytes” value ([1]; dose required for prevention of bacterial infections, administration immediately up to 12 hours after the stroke, FIG. 8) was “prevents”.

B1: IFN-γ: pro-inflammatory cytokine, interferon (protein, UniProt P01579 24-161, looked up)
Interferon gamma: QDPYVKEAENLKKYFNAGHSDVADNGTLFLGILKNWKEESDRKIMQSQIVSFYFKLFKNFKDDQSIQKSVETIKEDMNVKFFNSNKKKRDDFEKLTNYSVTDLNVQRKAIHELIQVMAELSPAAKTGKRKRSQMLFRG
B1 was tested, and the “germ number in the lung” value ([1]; 2 μg, FIG. 9) was “reduce” and the “germ number in the blood” value ([1]; 2 μg, even more pronounced than in the lung, FIG. 9) was “reduce”.
